# Assay results as given in patent publication US6914045B2, “Glycopeptide antibiotics” (Wyeth Holdings Corporation, priority 2001, dated 2005).
# How the values were obtained:
# [1] = anatomic pathology (histopathology of heart and kidney) in mice; format: in vivo; settings: CD-1 mice, 20 mg/kg intravenously daily for 9 days, necropsy day 10, microscopic histopathology
# Description: Samples of tissues from necropsied mice were formalin-fixed, paraffin-embedded, sectioned, stained with hematoxylin and eosin, and examined microscopically. Histopathologic findings were recorded. These findings were subjectively graded on a scale corresponding to slight, mild, moderate, marked and severe as compared to untreated controls.
# [2] = tested on: Streptococcus pneumoniae (GC 1894); assay: acute lethal infection in mice; format: in vivo; settings: female CD-1 mice, intraperitoneal challenge, intravenous 30 min. after infection, 7 day survival
# Method in brief: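 Female CD-1 mice (20+/−2 gm) were infected intraperitoneally with enough bacteria, suspended in trypticase soy broth or hog gastric mucin, to kill untreated controls within 24-48 hr. Compound in saline or 5% dextrose was given intravenously 30 min post-infection, five mice per dose. ED50 came from pooled 7 day survival of 3 tests.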
# Staphylococcus sp. = assay: in vitro antibacterial evaluation, MIC by broth dilution; format: cell-based; settings: broth dilution, 18 hours at 35° C.
# Method in brief: (§1)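 Broth dilution per NCCLS M7-A2 in Mueller-Hinton II medium, inoculum 5×10^5 CFU/mL, antibiotic range 64-0.06 μg/mL. MIC taken as lowest concentration inhibiting growth; Gram-positive panel includes recent clinical isolates resistant to methicillin, penicillin and/or vancomycin.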
# Enterococcus sp. = assay: as above; format: cell-based; settings: broth dilution, 18 hours at 35° C.
# Method in brief: as §1
# Escherichia coli = assay: as above; format: cell-based; settings: 18 hours at 35° C., strain GC 4560
# Method in brief: as §1
# Streptococcus sp. = assay: as above; format: cell-based; settings: broth dilution, 18 hours at 35° C.
# Method in brief: as §1
structure (smiles),measurement,setting,value
"N=C1NCC(C(O)C2NC(=O)C(Cc3ccc(OC4OC(CO)C(OC5OC6COC7(OC6C(O)C5O)C5CC6CC(C5)CC7C6)C(O)C4O)cc3)NC(=O)C(CC3CCCCC3)NC(=O)CNC(=O)C(CO)NC(=O)C(C(O)C3CNC(=N)N3C3OC(CO)C(O)C(O)C3O)NC2=O)N1 (centres unmarked) [Example 106, Cyclo[3-cyclohexylalanyl-O-[4-O-[4,6-O-(2-adamantylidene)hexopyranosyl]hexopyranosyl]-tyrosyl-3-(2-iminoimidazolidin-4-yl)seryl-3-(3-hexopyranosyl-2-iminoimidazolidin-4-yl)-serylserylglycyl]]","Anatomical Pathology (Day 10), Heart",[1],0
same,"median effective dose (ED50), Streptococcus pneumoniae (GC 1894)",[2],0.07 mg/kg
same,MIC Coagulase Negative Staphylococcus (GC 4547),Staphylococcus sp.,0.5 to 2 µg/mL
same,MIC Coagulase Negative Staphylococcus (GC 4548),Staphylococcus sp.,0.25 to 1 µg/mL
same,MIC Coagulase Negative Staphylococcus (GC 4549),Staphylococcus sp.,<0.12 to 1 µg/mL
same,MIC Coagulase Negative Staphylococcus (GC 4551),Staphylococcus sp.,0.25 to 1 µg/mL
same,MIC Coagulase Negative Staphylococcus (GC 6257),Staphylococcus sp.,0.25 µg/mL
same,MIC Staphylococcus aureus (ATCC 29213),Staphylococcus sp.,0.5 to 2 µg/mL
same,MIC Staphylococcus aureus (GC 1131),Staphylococcus sp.,0.5 to 2 µg/mL
same,MIC Staphylococcus aureus (GC 3051),Staphylococcus sp.,0.5 to 2 µg/mL
same,MIC Staphylococcus aureus (GC 3053),Staphylococcus sp.,0.5 to 2 µg/mL
same,MIC Staphylococcus aureus (GC 4541),Staphylococcus sp.,0.5 to 2 µg/mL
same,MIC Staphylococcus aureus (GC 4542),Staphylococcus sp.,0.25 to 1 µg/mL
same,MIC Staphylococcus aureus (GC 4544),Staphylococcus sp.,0.25 to 2 µg/mL
same,MIC Staphylococcus aureus (GC 4545),Staphylococcus sp.,0.5 to 2 µg/mL
same,MIC Staphylococcus aureus-SMITH (GC 4543),Staphylococcus sp.,0.25 to 1 µg/mL
same,MIC Staphylococcus haemolyticus (GC 4546),Staphylococcus sp.,0.5 to 1 µg/mL
same,MIC Staphylococcus haemolyticus (GC 4546),Staphylococcus sp.; strain GC 4546,0.5 to 1 µg/mL
same,MIC Coagulase Negative Staphylococcus (GC 4547),Staphylococcus sp.; strain GC 4547,0.5 to 2 µg/mL
same,MIC Coagulase Negative Staphylococcus (GC 6257),Staphylococcus sp.; strain GC 6257,0.25 µg/mL
same,MIC Enterococcus faecalis (ATCC 29212),Enterococcus sp.; strain ATCC 29212,0.5 to 2 µg/mL
same,MIC Enterococcus faecalis (GC 2242),Enterococcus sp.; strain GC 2242,0.5 to 2 µg/mL
same,MIC Enterococcus faecium (GC 2243),Enterococcus sp.; strain GC 2243,0.5 to 2 µg/mL
same,MIC Enterococcus faecalis (GC 2691),Enterococcus sp.; strain GC 2691,1 to 2 µg/mL
same,MIC Enterococcus faecalis (GC 3059),Enterococcus sp.; strain GC 3059,1 to 2 µg/mL
same,MIC Enterococcus faecalis (GC 4552),Enterococcus sp.; strain GC 4552,1 to 2 µg/mL
same,MIC Enterococcus faecalis (GC 4553),Enterococcus sp.; strain GC 4553,1 to 2 µg/mL
same,MIC Enterococcus faecalis (GC 4554),Enterococcus sp.; strain GC 4554,1 to 2 µg/mL
same,MIC Enterococcus faecium (GC 4556),Enterococcus sp.; strain GC 4556,0.5 to 2 µg/mL
same,MIC Enterococcus faecium (GC 4557),Enterococcus sp.; strain GC 4557,0.5 to 2 µg/mL
same,MIC Enterococcus avium (GC 4558),Enterococcus sp.; strain GC 4558,1 to 2 µg/mL
same,MIC Enterococcus faecalis (GC 6189),Enterococcus sp.; strain GC 6189,1 to 2 µg/mL
same,MIC Escherichia coli (GC 4560),Escherichia coli,0.5 to 2 µg/mL
same,MIC Streptococcus pneumoniae (ATCC 6301),Streptococcus sp.; strain ATCC 6301,<0.03 µg/mL
same,MIC Streptococcus pneumoniae (GC 1894),Streptococcus sp.; strain GC 1894,<0.03 µg/mL
same,MIC Streptococcus pyogenes (GC 4563),Streptococcus sp.; strain GC 4563,<0.03 µg/mL
same,MIC Streptococcus agalactiae (GC 4564),Streptococcus sp.; strain GC 4564,<0.03 µg/mL
same,MIC Streptococcus pneumoniae (GC 4565),Streptococcus sp.; strain GC 4565,<0.03 µg/mL
